Reference: article PMC3541007 (ChemMedChem, 2009)
“And” between values parts separate entries of the source, which are not always exact repeats. Identical values can stand only once. Like-named read-outs stand apart in the source and are kept apart here.

Assays:
[1] = system: M. tuberculosis H37Rv inhA (S94A); assay type: cell-based, Mycobacterium tuberculosis
[2] = system: M. tuberculosis clinical isolate 12081; assay type: cell-based; conditions: for MIC clinical isolate 12081: multi-drug resistant isolate, four weeks
[3] = system: M. tuberculosis clinical isolate 5071; assay type: cell-based; conditions: multi-drug resistant isolate, four weeks
[4] = system: M. tuberculosis H37Rv ΔkatG; assay type: cell-based, Mycobacterium tuberculosis

| Molecule | MIC H37Rv inhA (S94A) [1] | MIC clinical isolate 12081 [2] | MIC clinical isolate 12081 ([2]; value in parentheses) | MIC clinical isolate 5071 [3] | MIC clinical isolate 5071 ([3]; value in parentheses) | times less active against the ΔkatG mutant [4] | fold loss in potency versus InhA(S94A) strain compared to wild-type [1] | fold resistance of strain 12081 ([2]; MIC ratio vs wild-type strain) |
| --- | --- | --- | --- | --- | --- | --- | --- | --- |
| 5-n-butyltriclosan [Compound 10] | 37 (120) µg/ml and 37 (120) µM | 37 µg/mL | 120 µM | 4.7 µg/mL | 15 µM | – | – | – |
| NNC(=O)c1ccncc1 [INH, isoniazid] | 0.50 (3.6) µg/ml and 0.50 (3.6) µM | – | – | – | – | more than 3000 times | 8 fold | 17 fold |
